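Each compound was tested at five concentrations against cells in 96-well plates for 48 hours. The concentration for 50% growth inhibition is given as GI50. TGI marks complete inhibition of growth.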
What was measured:
Test in all cases: NCI tumour cell line growth inhibition, 48 h
A498 renal = test system: A498 renal
A549 NSCLC = test system: A549 NSCLC
CAKI-1 renal = test system: CAKI-1 renal
CCRF-CEM leukemia = test system: CCRF-CEM leukemia
COLO 205 colon = test system: COLO 205 colon
DLD-1 colon = test system: DLD-1 colon
DMS 273 small cell lung = test system: DMS 273 small cell lung
EKVX NSCLC = test system: EKVX NSCLC
HCC-2998 colon = test system: HCC-2998 colon
HCT-116 colon = test system: HCT-116 colon
HCT-15 colon = test system: HCT-15 colon
HL-60(TB) leukemia = test system: HL-60(TB) leukemia
HOP-18 NSCLC = test system: HOP-18 NSCLC
HOP-62 NSCLC = test system: HOP-62 NSCLC
HOP-92 NSCLC = test system: HOP-92 NSCLC
HT29 colon = test system: HT29 colon
IGROV1 ovarian = test system: IGROV1 ovarian
K-562 leukemia = test system: K-562 leukemia
KM12 colon = test system: KM12 colon
KM20L2 colon = test system: KM20L2 colon
LOX IMVI melanoma = test system: LOX IMVI melanoma
MALME-3M melanoma = test system: MALME-3M melanoma
MCF7 breast = test system: MCF7 breast
MOLT-4 leukemia = test system: MOLT-4 leukemia
NCI-H226 lung = test system: NCI-H226 lung
NCI-H23 lung = test system: NCI-H23 lung
NCI-H460 lung = test system: NCI-H460 lung
NCI-H522 lung = test system: NCI-H522 lung
NCI/ADR-RES ovarian = test system: NCI/ADR-RES ovarian
OVCAR-3 ovarian = test system: OVCAR-3 ovarian
OVCAR-4 ovarian = test system: OVCAR-4 ovarian
OVCAR-5 ovarian = test system: OVCAR-5 ovarian
OVCAR-8 ovarian = test system: OVCAR-8 ovarian
P388 leukemia = test system: P388 leukemia
P388/ADR leukemia = test system: P388/ADR leukemia
RPMI-8226 leukemia = test system: RPMI-8226 leukemia
RXF 393 renal = test system: RXF 393 renal
SF-268 CNS = test system: SF-268 CNS
SF-295 CNS = test system: SF-295 CNS
SF-539 CNS = test system: SF-539 CNS
SK-MEL-2 melanoma = test system: SK-MEL-2 melanoma
SK-MEL-28 melanoma = test system: SK-MEL-28 melanoma
SK-MEL-5 melanoma = test system: SK-MEL-5 melanoma
SK-OV-3 ovarian = test system: SK-OV-3 ovarian
SN12C renal = test system: SN12C renal
SN12K1 renal = test system: SN12K1 renal
SNB-19 CNS = test system: SNB-19 CNS
SNB-75 CNS = test system: SNB-75 CNS
SNB-78 CNS = test system: SNB-78 CNS
SW-620 colon = test system: SW-620 colon
U251 CNS = test system: U251 CNS
UACC-257 melanoma = test system: UACC-257 melanoma
UACC-62 melanoma = test system: UACC-62 melanoma
UO-31 renal = test system: UO-31 renal
XF 498 CNS = test system: XF 498 CNS

NC1CCCCC1N.Nc1c(N=Nc2ccc(-c3ccc(N=Nc4cc(S(=O)(=O)[O-])c5ccccc5c4N)cc3)cc2)cc(S(=O)(=O)[O-])c2ccccc12.[OH3+].[OH3+].[Pt+4]
GI50 (A498 renal): > 100 µM
TGI (A498 renal): > 100 µM
GI50 (A549 NSCLC): > 76.5 µM
TGI (A549 NSCLC): > 100 µM
GI50 (CAKI-1 renal): > 39.9 µM
TGI (CAKI-1 renal): > 56.9 µM
GI50 (CCRF-CEM leukemia): 29.2 µM
TGI (CCRF-CEM leukemia): > 79.3 µM
GI50 (COLO 205 colon): 17.1 µM
TGI (COLO 205 colon): 32.9 µM
GI50 (DLD-1 colon): 21.1 µM
TGI (DLD-1 colon): 43.5 µM
GI50 (DMS 273 small cell lung): 59.2 µM
TGI (DMS 273 small cell lung): > 100 µM
GI50 (EKVX NSCLC): 33.8 µM
TGI (EKVX NSCLC): 81.7 µM
GI50 (HCC-2998 colon): > 90.9 µM
TGI (HCC-2998 colon): > 100 µM
GI50 (HCT-116 colon): > 96.1 µM
TGI (HCT-116 colon): > 100 µM
GI50 (HCT-15 colon): > 43.3 µM
TGI (HCT-15 colon): > 59.6 µM
GI50 (HL-60(TB) leukemia): 21.2 µM
TGI (HL-60(TB) leukemia): 50.9 µM
GI50 (HOP-18 NSCLC): 24.5 µM
TGI (HOP-18 NSCLC): 53.3 µM
GI50 (HOP-62 NSCLC): > 100 µM
TGI (HOP-62 NSCLC): > 100 µM
GI50 (HOP-92 NSCLC): 14.2 µM
TGI (HOP-92 NSCLC): 19.9 µM
GI50 (HT29 colon): 20.1 µM
TGI (HT29 colon): 38.8 µM
GI50 (IGROV1 ovarian): 48.5 µM
TGI (IGROV1 ovarian): > 100 µM
GI50 (K-562 leukemia): 25 µM
TGI (K-562 leukemia): 64.2 µM
GI50 (KM12 colon): > 60.5 µM
TGI (KM12 colon): > 100 µM
GI50 (KM20L2 colon): > 100 µM
TGI (KM20L2 colon): > 100 µM
GI50 (LOX IMVI melanoma): > 52.2 µM
TGI (LOX IMVI melanoma): > 80.7 µM
GI50 (MALME-3M melanoma): 15.4 µM
TGI (MALME-3M melanoma): 22.2 µM
GI50 (MCF7 breast): 30.9 µM
TGI (MCF7 breast): > 100 µM
GI50 (MOLT-4 leukemia): 21.1 µM
TGI (MOLT-4 leukemia): 54.6 µM
GI50 (NCI-H226 lung): > 52.6 µM
TGI (NCI-H226 lung): > 100 µM
GI50 (NCI-H23 lung): 67.9 µM
TGI (NCI-H23 lung): > 100 µM
GI50 (NCI-H460 lung): 40 µM
TGI (NCI-H460 lung): > 100 µM
GI50 (NCI-H522 lung): 19.6 µM
TGI (NCI-H522 lung): 37.9 µM
GI50 (NCI/ADR-RES ovarian): 20.9 µM
TGI (NCI/ADR-RES ovarian): 43 µM
GI50 (OVCAR-3 ovarian): 42.8 µM
TGI (OVCAR-3 ovarian): > 60.1 µM
GI50 (OVCAR-4 ovarian): 35.3 µM
TGI (OVCAR-4 ovarian): > 93 µM
GI50 (OVCAR-5 ovarian): > 100 µM
TGI (OVCAR-5 ovarian): > 100 µM
GI50 (OVCAR-8 ovarian): 26.8 µM
TGI (OVCAR-8 ovarian): > 68.1 µM
GI50 (P388 leukemia): 26.3 µM
TGI (P388 leukemia): 90.5 µM
GI50 (P388/ADR leukemia): 22.6 µM
TGI (P388/ADR leukemia): > 62 µM
GI50 (RPMI-8226 leukemia): 25.2 µM
TGI (RPMI-8226 leukemia): 66.3 µM
GI50 (RXF 393 renal): 20.3 µM
TGI (RXF 393 renal): 68.5 µM
GI50 (SF-268 CNS): > 78.6 µM
TGI (SF-268 CNS): > 100 µM
GI50 (SF-295 CNS): > 100 µM
TGI (SF-295 CNS): > 100 µM
GI50 (SF-539 CNS): > 100 µM
TGI (SF-539 CNS): > 100 µM
GI50 (SK-MEL-2 melanoma): 45.6 µM
TGI (SK-MEL-2 melanoma): > 100 µM
GI50 (SK-MEL-28 melanoma): 22 µM
TGI (SK-MEL-28 melanoma): 42.2 µM
GI50 (SK-MEL-5 melanoma): 33 µM
TGI (SK-MEL-5 melanoma): > 83.9 µM
GI50 (SK-OV-3 ovarian): > 100 µM
TGI (SK-OV-3 ovarian): > 100 µM
GI50 (SN12C renal): > 56.9 µM
TGI (SN12C renal): > 100 µM
GI50 (SN12K1 renal): 27.3 µM
TGI (SN12K1 renal): > 58.2 µM
GI50 (SNB-19 CNS): > 100 µM
TGI (SNB-19 CNS): > 100 µM
GI50 (SNB-75 CNS): > 77.2 µM
TGI (SNB-75 CNS): > 100 µM
GI50 (SNB-78 CNS): > 76.5 µM
TGI (SNB-78 CNS): > 100 µM
GI50 (SW-620 colon): 25.2 µM
TGI (SW-620 colon): 49.4 µM
GI50 (U251 CNS): > 100 µM
TGI (U251 CNS): > 100 µM
GI50 (UACC-257 melanoma): 18.1 µM
TGI (UACC-257 melanoma): 34.7 µM
GI50 (UACC-62 melanoma): 61.4 µM
TGI (UACC-62 melanoma): > 100 µM
GI50 (UO-31 renal): > 100 µM
TGI (UO-31 renal): > 100 µM
GI50 (XF 498 CNS): 20.4 µM
TGI (XF 498 CNS): 42 µM
